Laboratory results from patent US20160370380A1, “COMBINATORIAL ANTIBODY DIAGNOSTIC” (PharmaSeq, Inc., priority 2015, published 2016).

How the values were obtained:
[1] = test system: anti-HA antibody; assay: HA competitive binding: free peptide in solution competes with […] on MTPs for the anti-HA antibody; settings: for competitive activity against YPYDVPDYA peptide on MTPs for anti-HA antibody: free peptide with spacer GG in solution, FIG. 3
[2] = test system: anti-HA antibody; assay: anti-HA antibody binding assay on MTP-bound peptides (fluorescence, SAPE detection)

Row | Substance | competitive activity against YPYDVPDYA peptide on MTPs for anti-HA antibody [1] | binding affinity to the anti-HA antibody (conclusion from competition and screen) ([1]; taken together from results of FIG. 3 and screen) | recognition by / affinity to anti-HA antibody in HA peptide assay ([2]; […], QC control group vial #9, data not shown) | assay signal (binding to anti-HA antibody) in screen of random 4-aa peptide library ([2]; 5,307 random 4-aa peptides on MTPs, 10 ug/mL biotinylated anti-HA monoclonal antibody, fluorescence at 532 nm)
1 | YHYY | competed well | high binding affinity | – | –
2 | YPYDVPDYA | reduced assay signal | – | specifically recognized by anti-HA antibody | –
3 | HKRK | no competitive activity | – | – | very low binding
